ChEMBL document CHEMBL5726724, “Cystathionine-gamma-lyase (CSE) inhibitors” (2019)

Each molecule was assayed against Cystathionine gamma-lyase (Homo sapiens, UniProt P32929).
Cystathionine gamma-lyase, sequence (P32929 whole entry): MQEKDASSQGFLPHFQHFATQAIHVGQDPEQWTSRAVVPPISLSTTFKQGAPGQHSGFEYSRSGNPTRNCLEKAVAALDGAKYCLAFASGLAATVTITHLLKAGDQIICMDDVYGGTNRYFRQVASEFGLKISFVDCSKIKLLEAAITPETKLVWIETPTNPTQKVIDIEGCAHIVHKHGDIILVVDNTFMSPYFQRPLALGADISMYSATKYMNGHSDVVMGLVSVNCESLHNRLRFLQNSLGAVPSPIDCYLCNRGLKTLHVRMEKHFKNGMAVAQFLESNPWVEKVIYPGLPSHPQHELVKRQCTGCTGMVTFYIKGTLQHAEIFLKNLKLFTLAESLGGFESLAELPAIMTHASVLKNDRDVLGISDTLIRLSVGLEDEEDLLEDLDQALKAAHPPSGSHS

SMILES	IC50 [µM]
C#CCC(N)C(=O)O (configuration not stated)	< 25
C#CC[C@@H](N)C(=O)O	> 100
C#CC[C@H](N)c1nc(C(F)(F)F)n[nH]1	> 100
C#CC[C@H](N)c1ncn[nH]1	< 25
N#CCC(N)C(=O)O (configuration not stated)	< 25
C#CC[C@H](N)c1nc(N)n[nH]1	> 100
C#CC[C@H](N)c1noc(=O)[nH]1	< 25
